For one test, the target named is T1, full-length WT STING (Homo sapiens, UniProt Q86WV6, H232R).
T1 construct: made in house; host or cells: Trichoplusia ni insect cells, baculovirus generated in Sf21; crude membranes
Nature of the test: 3H-cGAMP filtration binding assay (WT STING). The conditions noted are these: competition with tritiated cGAMP ligand; T. ni cell membranes overexpressing full-length WT STING. How it is done:
The ability of compounds to bind STING is quantified by their ability to compete with tritiated cGAMP ligand for human STING receptor membrane using a radioactive filter-binding assay. The binding assay employs STING receptor obtained from Trichoplusia ni cell membranes (T. ni; Expression Systems, cat #94-002F, www.expressionsystems.com) overexpressing full-length WT STING and tritiated cGAMP ligand.
The basic WT STING filtration assay protocol is as follows:
16 nM of [^3H] c-GAMP ligand was prepared by diluting into assay buffer, and 50 uL of this working stock was manually added to each well of the assay plate. After ligand addition, 2 uL of either titrated test compound, DMSO control (Sigma #276855), or cold cGAMP control was added to the appropriate wells using a BIOMEK FX. The serially titrated compound was prepared on a Hamilton STARPlus CORE in a 96-well plate (Greiner, #651201) using a 1:3 ten-point dose response format. Following compound addition, a 2.2 ug/ml working concentration of STING membrane (SEQ. ID. No. 3) was prepared by diluting concentrated membrane into assay buffer (1×PBS; Invitrogen #SH30028.02) and douncing 7× using a manual tissue homogenizer (Wheaton, #357546). 148 uL of this prepared membrane was then manually added to each well of a 96-well deep-well polypropylene plate (Fisher Scientific, #12-566-121). Compound, ligand, and membrane then incubated for 60 min at RT before the contents of each assay plate were filtered through a 96-well GF/B filter plate (PerkinElmer, #6005250) using a TOMTEC MACH III Cell Harvester equipped with 20 mM HEPES buffer (Fisher Scientific, #BP299500). The filter plates were then dried at 55° C. for 30 min using a pressurized VWR oven before 30 uL of ULTIMA GOLD F scintillate was added to each well. Tritium levels for each reaction well were then measured using a PerkinElmer TopCount plate reader.
(§1) After normalization to controls, the percent activity for each compound concentration was calculated by measuring the amount of remaining radioactivity. The plot of percent activity versus the log of compound concentration was fit with a 4-parameter dose response equation to calculate EC50 values.

Test [1] relates to IFN-β secretion from THP1 cells. Put plainly: IFN-β secretion in THP1 cell culture (5 h). It counts as cell-based, human. The conditions noted are these: THP1 cells, 5 h incubation, compound at 30 μM, 30 uM cGAMP = 100%; for activation at 30 µM: Homo sapiens, THP-1, 5 h, read-out: % Effect at 30 μM relative to 2′3′-cGAMP. How it is done:
The ability of compounds to stimulate the secretion of interferon-beta from THP1 cells was measured using a human IFN-β AlphaLISA kit (Perkin Elmer, Cat. No. AL265F). The basic protocol is as follows:
The cell viability and count was ascertained using a Beckman Coulter V-Cell XR cell counter. The cell suspension was centrifuged at 200×g for 5 min at RT. Cells were resuspended to a density of 0.8×10^6/mL in 37° C. assay medium. Subsequent liquid transfers were performed using either a Matrix electronic multichannel pipette or an Agilent Bravo Automated Liquid Handling Platform.
The assay was started by dispensing 40 μL of the previously prepared cell suspension into the wells of the plate containing compounds. After 5 h incubation at 37° C., 5% CO2 in a humidified atmosphere, the plate of cells and compounds was centrifuged at 200×g for 5 min at RT. […] To these supernatant-containing wells was added 10 μL of 5× Anti-Analyte Acceptor beads (50 μg/mL of AlphaLISA HiBlock Buffer) and incubated for 30 min at RT while shaking on an orbital plate shaker. To each well was added 10 μL of 5× Biotinylated Antibody Anti-analyte (5 nM in AlphaLISA HiBlock Buffer) and incubated on an orbital plate shaker for 60 min at RT or overnight at 4° C. To each well was added 25 μL of 2× SA-Donor beads (80 μg/mL in AlphaLISA HiBlock Buffer) and incubated for 30-45 min at RT in the dark while shaking on an orbital plate shaker. The plate was then read on a Perkin Elmer Envision (λex680 nm, λem=570 nm). The percent effect of the AlphaLISA signal at each compound concentration was calculated based on 30 uM cGAMP positive controls and 0.3% DMSO negative controls. The plot of percent effect versus the log of compound concentration was fit with a 4-parameter concentration response equation to calculate EC50 values.
Compounds of the disclosure were evaluated for IFN-β secretion in THP1 cell culture as described above.

A further test has as its target T2, full-length HAQ STING (Homo sapiens, UniProt Q86WV6, G230A/H232R/R293Q/R71H).
T2 construct: made in house; host or cells: Trichoplusia ni (Hi-Five) insect cells, baculovirus generated in Sf21; crude membranes
Nature of the test: 3H-cGAMP filtration binding assay (HAQ STING). Conditions: competition with tritiated cGAMP ligand; T. ni cell membranes overexpressing full-length HAQ STING.
From the text: The ability of compounds to bind STING is quantified by the ability to compete with tritiated cGAMP ligand for human STING receptor membrane using a radioactive filter-binding assay. The binding assay employs STING receptor obtained from Hi-Five cell membranes overexpressing full-length HAQ STING prepared in-house and tritiated cGAMP ligand also purified in-house.
The ability of compounds to bind STING is quantified by their ability to compete with tritiated cGAMP ligand for human STING receptor membrane using a radioactive filter-binding assay. The binding assay employs STING receptor obtained from Trichoplusia ni cell membranes (T. ni; Expression Systems, cat #94-002F, www.expressionsystems.com) overexpressing full-length HAQ STING and tritiated cGAMP ligand.
The basic HAQ STING filtration assay protocol is as follows:
The compounds were serially titrated by the Hamilton STARPlus CORE in a 96-well plate (Greiner, #651201) using a 1:3 ten-point dose response format. […] 148 uL of prepared membrane was then manually added to each well of a 96-well deep-well polypropylene plate (Fisher Scientific, #12-566-121). Following membrane addition, 2 uL of either titrated test compound, DMSO control (Sigma #276855), or cold cGAMP control was added to the appropriate wells using a BIOMEK FX. Compound and membrane then preincubated for 60 min at RT to allow compound binding to equilibrate. Following equilibration, 8 nM of [^3H] c-GAMP ligand was prepared by diluting into assay buffer, and 50 uL of this working stock was then manually added to each well of the assay plate. Plates were then incubated at RT for 60 min, and the contents of each assay plate were then filtered through a 96-well GF/B filter plate (PerkinElmer, #6005250) using a TOMTEC MACH III Cell Harvester equipped with 20 mM HEPES buffer (Fisher Scientific, #BP299500). The filter plates were then dried at 55° C. for 30 min using a pressurized oven before 30 uL of ULTIMA GOLD F scintillate was added to each well. Tritium levels for each reaction well were then measured using a PerkinElmer TopCount plate reader.
as §1

Broadly, the EC50 is the concentration needed to bring the measured effect to its halfway point. The low end stands for higher potency in that assay, the high end for lower potency in that assay.

Molecules are shown by their SMILES.

T1 sequence (Q86WV6 with tags, fused parts or gaps H232R): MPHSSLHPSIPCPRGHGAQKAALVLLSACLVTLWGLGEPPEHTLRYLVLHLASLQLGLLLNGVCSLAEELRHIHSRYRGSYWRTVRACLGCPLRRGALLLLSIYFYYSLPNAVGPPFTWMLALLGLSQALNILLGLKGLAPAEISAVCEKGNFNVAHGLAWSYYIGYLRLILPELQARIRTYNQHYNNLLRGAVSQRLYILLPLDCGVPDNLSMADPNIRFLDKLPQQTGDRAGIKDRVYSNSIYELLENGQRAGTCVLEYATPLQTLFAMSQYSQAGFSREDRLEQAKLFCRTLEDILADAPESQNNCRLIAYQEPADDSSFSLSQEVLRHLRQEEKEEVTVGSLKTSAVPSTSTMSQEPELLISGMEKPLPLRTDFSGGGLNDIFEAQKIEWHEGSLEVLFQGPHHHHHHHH
T2 sequence (Q86WV6 with tags, fused parts or gaps R71H/G230A/H232R/R293Q): as the sequence (Q86WV6 with tags, fused parts or gaps H232R) above, with R71H, G230A, R293Q counted along it

On to `Nc1ncnc2c1ncn2[C@@H]1O[C@@H]2COP(=O)(S)O[C@@H]3[C@H](O)[C@@H](COP(=O)(S)O[C@H]2[C@@H]1F)O[C@H]3n1cnc2c(=O)n3c(nc21)NC(=O)C3` (stereo partly drawn) [Example 14, 3-[(5R,7R,8R,12aR,14R,15S,15aR,16R)-14-(6-amino-9H-purin-9-yl)-15-fluoro-16-hydroxy-2,10-dioxido-2,10-disulfanyloctahydro-12H-5,8-methanofuro[3,2-l][l,3,6,9,11,2,10]pentaoxadiphosphacyclotetradecin-7-yl]-3H-imidazo[1,2-a]purine-6,9(5H,7H)-dione], for which the EC50 on full-length WT STING was found to be 433 nM. Also, the activation at 30 µM in test [1] came out at 12%.

In the case of `Nc1nc2c(ncn2[C@@H]2O[C@@H]3COP(=O)(S)O[C@H]4C[C@H](n5cc(F)c6c(=O)[nH]cnc65)O[C@@H]4COP(=O)(S)O[C@@H]2[C@@H]3F)c(=O)[nH]1` (single isomer, unassigned) [Example 53], the EC50 at full-length HAQ STING was determined as 167 nM; on full-length WT STING, 253 nM. Further, in test [1], the activation at 30 µM stood at 85%.

`Nc1nc2c(nnn2[C@@H]2O[C@@H]3COP(=O)(S)O[C@H]4C[C@H](n5ccc6c(=O)[nH]cnc65)O[C@@H]4COP(=O)(S)O[C@@H]2C3)c(=O)[nH]1` (single isomer, unassigned) [Example 43]: the EC50 at full-length HAQ STING came to 37 nM; at full-length WT STING, 148 nM. For the same molecule, in test [1], the “% Effect at 30 μM relative to 2′3′-cGAMP” value came out at 120%.

Turning to `Nc1ncnc2c1nnn2[C@@H]1O[C@@H]2COP(=O)(S)O[C@@H]3[C@H](O)[C@@H](COP(=O)(S)O[C@H]2[C@@H]1F)O[C@H]3n1ccc(=O)n2ccnc12` (some centres unmarked) [Example 4], the EC50 at full-length HAQ STING is 59 nM; on full-length WT STING, 1760 nM. Further, the activation at 30 µM in test [1] was found to be 139%.

Regarding `Nc1ncnc2c1ccn2[C@H]1C[C@@H]2O[P@@](=O)(S)OC[C@H]3O[C@@H](n4ccc(=O)n5ccnc45)[C@H](O[P@](=O)(S)OC[C@H]2O1)[C@@H]3O` [Example 5, 8-[(2S,5R,7R,8R,10R,12aR,14R,15aS,16R)-14-(4-amino-7H-pyrrolo[2,3-d]pyrimidin-7-yl)-16-hydroxy-2,10-dioxido-2,10-disulfanyloctahydro-12H-5,8-methanofuro[3,2-l][1,3,6,9,11,2,10]pentaoxadiphosphacyclotetradecin-7-yl]imidazo [1,2-a]pyrimidin-5(8H)-one], the EC50 on full-length HAQ STING came out at 563 nM; on full-length WT STING, 10300 nM. The activation at 30 µM in test [1] came to 39%.

The molecule `Nc1ncnc2c1ncn2[C@@H]1O[C@@H]2COP(=O)(S)O[C@@H]3[C@H](O)[C@@H](COP(=O)(S)O[C@H]2[C@@H]1F)O[C@H]3n1cnc2c(=O)n3cc[nH]c3nc21` (single isomer, unassigned) [Example 16] yielded an EC50 on full-length WT STING of 90 nM. In addition, the “% Effect at 30 μM relative to 2′3′-cGAMP” value in test [1] is listed as 281%.

For `Nc1ncnc2c1ncn2[C@@H]1O[C@@H]2CO[P@@](=O)(S)O[C@@H]3[C@H](O)[C@@H](CO[P@@](=O)(S)O[C@H]2[C@H]1O)O[C@H]3n1ccc(=O)n2ccnc12` (single isomer, unassigned) [Example 1], the EC50 at full-length HAQ STING came to 77 nM; at full-length WT STING it was 1640 nM. Further, the activation at 30 µM in test [1] stood at 143%.

Molecule `Nc1ncnc2c1ncn2[C@@H]1O[C@@H]2COP(=O)(S)O[C@@H]3[C@H](O)[C@@H](COP(=O)(S)O[C@H]2[C@@H]1F)O[C@H]3n1cnc2c(=O)n3cc[nH]c3nc21` (single isomer, unassigned) [Example 15] had an EC50 on full-length WT STING of 43 nM. For the same molecule, the “% Effect at 30 μM relative to 2′3′-cGAMP” value in test [1] was 318%.

In the case of `Nc1nc2c(ncn2[C@@H]2S[C@@H]3COP(=O)(S)O[C@H]4[C@H](F)[C@H](n5ccc6c(=O)[nH]cnc65)O[C@@H]4COP(=O)(S)O[C@@H]2C3)c(=O)[nH]1` (stereo partly drawn) [Example 44, 2-amino-9-[(5S,7R,8R,12aR,14R,15S,15aR)-15-fluoro-2,10-dioxido-14-(4-oxo-3,4-dihydro-7H-pyrrolo[2,3-d]pyrimidin-7-yl)-2,10-disulfanyl-octahydro-12H-5,8-methanofuro[3,2-l] [1,3,9,11,6,2,10]tetraoxathiadiphosphacyclotetradecin-7-yl]-1,9-dihydro-6H-purin-6-one], the EC50 at full-length HAQ STING is 1 nM. The activation at 30 µM in test [1] was found to be 164%.

The record behind these values is patent US11685761B2, “Cyclic di-nucleotide compounds as sting agonists” (Merck Sharp & Dohme Corp., priority 2017, dated 2023).
